Patent USRE39591E1, “6-O-substituted ketolides having antibacterial activity” (Abbott Laboratories, priority 1996, dated 2007)
Converted amounts (≈) assume the structure as drawn.

Tested on: up to 32 different microorganisms
Experiment: in vitro antibacterial activity (MIC), agar dilution on Brain Heart Infusion (BHI) agar with Steers replicator
Type: cell-based
Conditions: unit assumed
How it was run: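 Up to 32 strains were replicator-inoculated (1:100, or 1:10 for Micrococcus and Streptococcus) onto BHI agar plates holding serial compound dilutions and kept 20-24 h at 35-37° C. Plates were read visually against drug-free growth controls, with erythromycin A run alongside; MIC was the lowest concentration giving no growth, slight haze or sparse colonies.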

| Structure (SMILES) | MIC (organism code AA) [µg/mL] | MIC (organism code BB) [µg/mL] | MIC (organism code CC) [µg/mL] | MIC (organism code DD) [µg/mL] | MIC (organism code EE) [µg/mL] | MIC (organism code FF) [µg/mL] | MIC (organism code GG) [µg/mL] | MIC (organism code HH) [µg/mL] | MIC (organism code II) [µg/mL] | MIC (organism code JJ) [µg/mL] | MIC (organism code KK) [µg/mL] | MIC (organism code LL) [µg/mL] | MIC (organism code MM) [µg/mL] | MIC (organism code NN) [µg/mL] | MIC (organism code OO) [µg/mL] | MIC (organism code PP) [µg/mL] | MIC (organism code QQ) [µg/mL] | MIC (organism code RR) [µg/mL] | MIC (organism code SS) [µg/mL] | MIC (organism code TT) [µg/mL] | other results |
| --- | --- | --- | --- | --- | --- | --- | --- | --- | --- | --- | --- | --- | --- | --- | --- | --- | --- | --- | --- | --- | --- |
| CC[C@H]1OC(=O)[C@H](C)C(=O)[C@H](C)[C@@H](O[C@@H]2O[C@H](C)C[C@H](N(C)C)[C@H]2O)[C@@](C)(OCC#Cc2ccc3nc(C)ccc3c2)C[C@@H](C)C(=O)[C@H](C)[C@H]2NC(=O)O[C@@]21C [Example 255, Compound of Formula (IX): L is CO, T is NH, R is —CH2—C≡C-(2-methyl-6-quinolyl)] | 0.1 | 0.2 | > 100 | 0.2 | 0.2 | 0.2 | > 100 | 0.1 | 0.05 | 0.02 | 0.02 | 0.02 | 50 | 0.2 | 0.05 | 0.2 | 100 | 0.3 | > 100 | > 100 | MIC (organism code UU): 3.1 µg/mL; MIC (organism code VV): 0.05 µg/mL; MIC (organism code XX): 0.03 µg/mL; MIC (organism code YY): 0.03 µg/mL; MIC (organism code ZZ): 16 µg/mL; MIC (organism code ZZA): 0.25 µg/mL |
| CC[C@H]1OC(=O)[C@H](C)C(=O)[C@H](C)[C@@H](O[C@@H]2O[C@H](C)C[C@H](N(C)C)[C@H]2O)[C@@](C)(OCC#Cc2ccc(C(=O)Nc3ccccn3)o2)C[C@@H](C)C(=O)[C@H](C)[C@H]2NC(=O)O[C@@]21C [Example 256] | 0.05 (≈ 0.0608 µM) | 0.05 (≈ 0.0608 µM) | > 100 | 0.05 (≈ 0.0608 µM) | 0.05 (≈ 0.0608 µM) | 0.02 (≈ 0.0243 µM) | > 100 | 0.1 (≈ 0.122 µM) | 0.02 (≈ 0.0243 µM) | 0.01 (≈ 0.0122 µM) | 0.02 (≈ 0.0243 µM) | 0.01 (≈ 0.0122 µM) | 25 (≈ 30.4 µM) | 0.2 (≈ 0.243 µM) | 0.01 (≈ 0.0122 µM) | 0.1 (≈ 0.122 µM) | 100 (≈ 122 µM) | 0.2 (≈ 0.243 µM) | > 100 | > 100 | MIC (organism code UU): 1.56 µg/mL (≈ 1.9 µM); MIC (organism code VV): 0.05 µg/mL (≈ 0.0608 µM); MIC (organism code WW): 2 µg/mL (≈ 2.43 µM); MIC (organism code XX): 0.03 µg/mL (≈ 0.0365 µM); MIC (organism code YY): 0.03 µg/mL (≈ 0.0365 µM); MIC (organism code ZZ): 16 µg/mL (≈ 19.4 µM); MIC (organism code ZZA): 0.25 µg/mL (≈ 0.304 µM) |
| C=C(C#CCO[C@@]1(C)C[C@@H](C)C(=O)[C@H](C)[C@H]2NC(=O)O[C@]2(C)[C@@H](CC)OC(=O)[C@H](C)C(=O)[C@H](C)[C@H]1O[C@@H]1O[C@H](C)C[C@H](N(C)C)[C@H]1O)c1ccccc1 [Example 257, Compound of Formula (IX): L is CO, T is NH, R is —CH2—C≡C-(1-phenylethenyl)] | 0.2 | 0.2 | > 100 | 0.2 | 0.2 | 0.2 | > 100 | 0.2 | 0.1 | 0.01 | 0.05 | 0.01 | 100 | 0.2 | 0.05 | 0.2 | > 100 | 0.78 | > 100 | > 100 | MIC (organism code UU): 0.39 µg/mL; MIC (organism code VV): 0.2 µg/mL; MIC (organism code WW): 8 µg/mL; MIC (organism code XX): 0.125 µg/mL; MIC (organism code YY): 0.125 µg/mL; MIC (organism code ZZ): 128 µg/mL; MIC (organism code ZZA): 0.5 µg/mL |
| CC[C@H]1OC(=O)[C@H](C)C(=O)[C@H](C)[C@@H](O[C@@H]2O[C@H](C)C[C@H](N(C)C)[C@H]2O)[C@@](C)(OCC#CBr)C[C@@H](C)C(=O)[C@H](C)[C@H]2NC(=O)O[C@@]21C [Example 258, Compound of Formula (IX): L is CO, T is NH, R is —CH2—C≡C—Br] | 0.78 | 0.39 | > 100 | 0.78 | 0.39 | 0.78 | > 100 | 0.78 | 0.39 | 0.05 | 0.1 | 0.05 | > 100 | 0.2 | 0.1 | 0.39 | > 100 | 0.78 | > 100 | > 100 | MIC (organism code UU): 12.5 µg/mL; MIC (organism code VV): 0.39 µg/mL; MIC (organism code WW): 32 µg/mL; MIC (organism code XX): 0.03 µg/mL; MIC (organism code YY): 0.03 µg/mL; MIC (organism code ZZ): > 128 µg/mL; MIC (organism code ZZA): 0.125 µg/mL |
| CC[C@H]1OC(=O)[C@H](C)C(=O)[C@H](C)[C@@H](O[C@@H]2O[C@H](C)C[C@H](N(C)C)[C@H]2O)[C@@](C)(OCC2COC(C)(C)O2)C[C@@H](C)C(=O)[C@H](C)[C@H]2NC(=O)O[C@@]21C (some centres unmarked) [Example 259, Compound of Formula (IX): L is CO, T is NH, R is —CH2-(2,2-dimethyl-1,3-dioxolan-4-yl)] | 6.2 | 6.2 | > 100 | 12.5 | 6.2 | 6.2 | > 100 | 6.2 | 0.78 | 0.39 | 0.78 | 0.39 | > 100 | 1.56 | 0.78 | 1.56 | > 100 | 1.56 | > 100 | > 100 | MIC (organism code UU): 12.5 µg/mL; MIC (organism code VV): 3.1 µg/mL; MIC (organism code WW): 128 µg/mL; MIC (organism code XX): 1 µg/mL; MIC (organism code YY): 1 µg/mL; MIC (organism code ZZ): > 128 µg/mL; MIC (organism code ZZA): 4 µg/mL |
| C=CCO[C@@]1(C)C[C@@H](C)C(=O)[C@H](C)[C@H]2N(N)C(=O)O[C@]2(C)[C@@H](CC)OC(=O)[C@H](C)C(=O)[C@H](C)[C@H]1O[C@@H]1O[C@H](C)C[C@H](N(C)C)[C@H]1O [Example 262, Compound of Formula (IX): L is CO, T is N(NH2), R is —CH CH═CH2] | 0.78 | 0.78 | > 100 | 0.78 | 0.78 | 0.78 | > 100 | 0.78 | 0.39 | ≤ 0.005 | 0.05 | 0.1 | > 100 | 0.78 | 0.1 | 0.39 | > 100 | 1.56 | > 100 | > 100 | MIC (organism code UU): 6.2 µg/mL; MIC (organism code VV): 0.39 µg/mL; MIC (organism code WW): 16 µg/mL; MIC (organism code XX): 0.03 µg/mL; MIC (organism code YY): 0.03 µg/mL; MIC (organism code ZZ): > 128 µg/mL; MIC (organism code ZZA): 0.5 µg/mL |
| CC[C@H]1OC(=O)[C@H](C)C(=O)[C@H](C)[C@@H](O[C@@H]2O[C@H](C)C[C@H](N(C)C)[C@H]2O)[C@@](C)(OCC=Cc2cnc3ccccc3c2)C[C@@H](C)C(=O)[C@H](C)[C@H]2N(N)C(=O)O[C@]12C [Example 263, Compound of Formula (IX): L is CO, T is N(NH2), R is —CH2CH═CH-(3-quinolyl)] | 0.1 | 0.1 | > 100 | 0.1 | 0.1 | 0.05 | > 100 | 0.1 | 0.01 | 0.01 | 0.02 | 0.02 | 50 | 0.2 | 0.02 | 0.2 | > 100 | 0.78 | > 100 | > 100 | MIC (organism code UU): 0.78 µg/mL; MIC (organism code VV): 0.2 µg/mL; MIC (organism code WW): 4 µg/mL; MIC (organism code XX): 0.015 µg/mL; MIC (organism code YY): 0.015 µg/mL; MIC (organism code ZZ): > 128 µg/mL; MIC (organism code ZZA): 0.25 µg/mL |
| CCC1OC(=O)C(C)C(=O)C(C)C(OC2OC(C)CC(N(C)C)C2O)C(C)(OCC=Cc2ccc3ncc(-c4ccccc4)cc3c2)CC(C)C(=O)C(C)C2NC(=O)OC12C (centres unmarked) [Example 273, Compound of Formula (IX): L is CO, T is NH2, R is —CH2CH═CH-(3-phenyl-6-quinolyl)] | 0.2 | 0.2 | > 100 | 0.2 | 0.2 | 0.2 | > 100 | 0.2 | 0.1 | 0.02 | 0.02 | 0.05 | 12.5 | 0.39 | 0.05 | 0.39 | > 100 | 0.78 | > 100 | > 100 | MIC (organism code UU): 0.78 µg/mL; MIC (organism code VV): 0.39 µg/mL; MIC (organism code WW): 8 µg/mL; MIC (organism code XX): 0.03 µg/mL; MIC (organism code YY): 0.03 µg/mL; MIC (organism code ZZ): 16 µg/mL; MIC (organism code ZZA): 0.5 µg/mL |
| CCC1OC(=O)C(C)C(=O)C(C)C(OC2OC(C)CC(N(C)C)C2O)C(C)(OCC=Cc2ccc3ncc(-c4cccnc4)cc3c2)CC(C)C(=O)C(C)C2NC(=O)OC12C (centres unmarked) [Example 274] | 0.1 (≈ 0.119 µM) | 0.1 (≈ 0.119 µM) | > 100 | 0.1 (≈ 0.119 µM) | 0.1 (≈ 0.119 µM) | 0.05 (≈ 0.0593 µM) | > 100 | 0.1 (≈ 0.119 µM) | 0.05 (≈ 0.0593 µM) | 0.01 (≈ 0.0119 µM) | 0.01 (≈ 0.0119 µM) | 0.01 (≈ 0.0119 µM) | 6.2 (≈ 7.35 µM) | 0.1 (≈ 0.119 µM) | 0.01 (≈ 0.0119 µM) | 0.1 (≈ 0.119 µM) | > 100 | 0.2 (≈ 0.237 µM) | > 100 | > 100 | MIC (organism code UU): 0.78 µg/mL (≈ 0.925 µM); MIC (organism code VV): 0.05 µg/mL (≈ 0.0593 µM); MIC (organism code WW): 4 µg/mL (≈ 4.74 µM); MIC (organism code XX): ≤ 0.004 µg/mL; MIC (organism code YY): ≤ 0.004 µg/mL; MIC (organism code ZZ): 8 µg/mL (≈ 9.49 µM); MIC (organism code ZZA): 0.25 µg/mL (≈ 0.297 µM) |
